Measured values taken from PubChem BioAssay (NCI).
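Dose response: 5 concentrations. Exposure: 48 h. Format: 96-well plates. Endpoint: linear interpolation; highest concentration if not reached. At the TGI there is no net growth.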

Tests used:
Assay in all cases: growth of human tumour cells (NCI), 48 h
[1] = tested on: 786-0 renal
[2] = tested on: A498 renal
[3] = tested on: ACHN renal
[4] = tested on: BT-549 breast
[5] = tested on: CAKI-1 renal
[6] = tested on: COLO 205 colon
[7] = tested on: DU-145 prostate
[8] = tested on: EKVX NSCLC
[9] = tested on: HCC-2998 colon
[10] = tested on: HCT-116 colon
[11] = tested on: HCT-15 colon
[12] = tested on: HL-60(TB) leukemia
[13] = tested on: HOP-62 NSCLC
[14] = tested on: HS 578T breast
[15] = tested on: HT29 colon
[16] = tested on: IGROV1 ovarian
[17] = tested on: K-562 leukemia
[18] = tested on: KM12 colon
[19] = tested on: LOX IMVI melanoma
[20] = tested on: MALME-3M melanoma
[21] = tested on: MCF7 breast
[22] = tested on: MDA-MB-231 breast
[23] = tested on: MDA-MB-435
[24] = tested on: MDA-N
[25] = tested on: MOLT-4 leukemia
[26] = tested on: NCI-H226 lung
[27] = tested on: NCI-H23 lung
[28] = tested on: NCI-H460 lung
[29] = tested on: NCI-H522 lung
[30] = tested on: NCI/ADR-RES ovarian
[31] = tested on: OVCAR-3 ovarian
[32] = tested on: OVCAR-4 ovarian
[33] = tested on: OVCAR-5 ovarian
[34] = tested on: OVCAR-8 ovarian
[35] = tested on: PC-3 prostate
[36] = tested on: RPMI-8226 leukemia
[37] = tested on: RXF 393 renal
[38] = tested on: SF-268 CNS
[39] = tested on: SF-295 CNS
[40] = tested on: SF-539 CNS
[41] = tested on: SK-MEL-2 melanoma
[42] = tested on: SK-MEL-28 melanoma
[43] = tested on: SK-MEL-5 melanoma
[44] = tested on: SN12C renal
[45] = tested on: SNB-19 CNS
[46] = tested on: SNB-75 CNS
[47] = tested on: SR leukemia
[48] = tested on: SW-620 colon
[49] = tested on: TK-10 renal
[50] = tested on: U251 CNS
[51] = tested on: UACC-257 melanoma
[52] = tested on: UACC-62 melanoma
[53] = tested on: UO-31 renal

## O=C1CSC(c2ccc([N+](=O)[O-])cc2)N1c1nc(-c2ccc3c(c2)CCCC3)cs1 (stereo not drawn)
[1]
  TGI: > 100 µM
[2]
  TGI: > 100 µM
[3]
  TGI: > 100 µM
[4]
  TGI: > 100 µM
[5]
  TGI: > 100 µM
[6]
  TGI: > 100 µM
[7]
  TGI: > 100 µM
[8]
  TGI: > 100 µM
[9]
  TGI: > 100 µM
[10]
  TGI: > 100 µM
[11]
  TGI: > 100 µM
[12]
  TGI: > 100 µM
[13]
  TGI: > 100 µM
[14]
  TGI: > 100 µM
[15]
  TGI: > 100 µM
[16]
  TGI: > 100 µM
[17]
  TGI: > 100 µM
[18]
  TGI: > 100 µM
[19]
  TGI: > 100 µM
[20]
  TGI: > 100 µM
[21]
  TGI: > 100 µM
[22]
  TGI: > 100 µM
[23]
  TGI: > 100 µM
[24]
  TGI: > 100 µM
[25]
  TGI: > 100 µM
[26]
  TGI: > 100 µM
[27]
  TGI: > 100 µM
[28]
  TGI: > 100 µM
[29]
  TGI: > 100 µM
[30]
  TGI: > 100 µM
[31]
  TGI: > 100 µM
[32]
  TGI: > 100 µM
[33]
  TGI: > 100 µM
[34]
  TGI: > 100 µM
[35]
  TGI: > 100 µM
[36]
  TGI: > 100 µM
[37]
  TGI: > 100 µM
[38]
  TGI: > 100 µM
[39]
  TGI: > 100 µM
[40]
  TGI: 81.8 µM
[41]
  TGI: > 100 µM
[42]
  TGI: > 100 µM
[43]
  TGI: > 100 µM
[44]
  TGI: > 100 µM
[45]
  TGI: > 100 µM
[46]
  TGI: > 100 µM
[47]
  TGI: > 100 µM
[48]
  TGI: > 100 µM
[49]
  TGI: > 100 µM
[50]
  TGI: > 100 µM
[51]
  TGI: > 100 µM
[52]
  TGI: > 100 µM
[53]
  TGI: > 100 µM
